Source: publication PMC11274453, “Structural and Thermodynamic Insights into Dimerization Interfaces of Drosophila Glutathione Transferases” (Biomolecules, 2024)

How the values were obtained:
[1] = target: T1, DmGSTE1 (Drosophila melanogaster, UniProt Q7KK90); test: spectrophotometric CDNB conjugation, […] nm, Michaelis-Menten fit; type: biochemical; details: 2 mM GSH; 100 mM sodium phosphate pH 6.5; 25 °C; 50 nM enzyme
T1 construct: gene GstE1; recombinant, codon-optimized gene in pET28a (NdeI/SacI), E. coli; homodimer; residues Ser2-Asp223 described in the structure
T1 sequence (Q7KK90 1-224): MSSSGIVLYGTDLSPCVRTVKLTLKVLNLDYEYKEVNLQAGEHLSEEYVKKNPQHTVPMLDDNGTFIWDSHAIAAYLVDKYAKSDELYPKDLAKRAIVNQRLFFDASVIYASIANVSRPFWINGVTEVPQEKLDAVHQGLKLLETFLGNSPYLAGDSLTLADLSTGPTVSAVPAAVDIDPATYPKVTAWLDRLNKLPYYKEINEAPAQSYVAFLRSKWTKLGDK

[2] = target: T1, DmGSTE1; test: X-ray crystal structure, […] Å; type: binding; details: G site; mixture with reduced glutathione at equal occupancies; sulfoxide H-bonds Ser14
[3] = target: the molecule itself; test: crystal structure; sitting-drop vapour diffusion at 4 °C; 15 mg/mL DmGSTE1 in 20 mM Tris-HCl pH 7.4; 20% w/v PEG 8000, 100 mM MES pH 6.0, 200 mM Ca acetate; space group P212121, one dimer in the asymmetric unit; glutathione bound

Molecule: O=[N+]([O-])c1ccc(Cl)c([N+](=O)[O-])c1 [CDNB, 1-chloro-2,4-dinitrobenzene]
- Km [1]: 15 ± 4 µM

Molecule: N[C@@H](CCC(=O)N[C@@H](CSO)C(=O)NCC(=O)O)C(=O)O [GS8]
- X-ray crystal structure, 1.80 Å [2]: occupied by a mixture of glutathione and glutathione sulfoxide refined with equal occupancies

B1: Drosophila melanogaster GSTE1 (enzyme)
chain: MSSSGIVLYGTDLSPCVRTVKLTLKVLNLDYEYKEVNLQAGEHLSEEYVKKNPQHTVPMLDDNGTFIWDSHAIAAYLVDKYAKSDELYPKDLAKRAIVNQRLFFDASVIYASIANVSRPFWINGVTEVPQEKLDAVHQGLKLLETFLGNSPYLAGDSLTLADLSTGPTVSAVPAAVDIDPATYPKVTAWLDRLNKLPYYKEINEAPAQSYVAFLRSKWTKLGDK
notes: Glutathione S-transferase E1 (Epsilon class), Drosophila melanogaster; the crystal model is described as Ser2-Tyr88 (N-terminal thioredoxin domain) and Pro89-Asp223 (C-terminal domain); Cloned in pET28a between NdeI and SacI; Crystallised with glutathione / glutathione sulfoxide in the G site; also called DmGSTE1; source: E. coli, purified (GSTrap Fast Flow, eluted with 10 mM reduced glutathione, …)
- stoichiometry N [3]: 2
